{
  "source": "patent US8957085B2",
  "about": "“Carboxamide bioisosteres of opiates” (Rensselaer Polytechnic Institute, priority 2010, dated 2015)",
  "key": {"human δ opioid receptor": {"target": "human δ opioid receptor (Homo sapiens, UniProt P41143)", "sequence (P41143 whole entry)": "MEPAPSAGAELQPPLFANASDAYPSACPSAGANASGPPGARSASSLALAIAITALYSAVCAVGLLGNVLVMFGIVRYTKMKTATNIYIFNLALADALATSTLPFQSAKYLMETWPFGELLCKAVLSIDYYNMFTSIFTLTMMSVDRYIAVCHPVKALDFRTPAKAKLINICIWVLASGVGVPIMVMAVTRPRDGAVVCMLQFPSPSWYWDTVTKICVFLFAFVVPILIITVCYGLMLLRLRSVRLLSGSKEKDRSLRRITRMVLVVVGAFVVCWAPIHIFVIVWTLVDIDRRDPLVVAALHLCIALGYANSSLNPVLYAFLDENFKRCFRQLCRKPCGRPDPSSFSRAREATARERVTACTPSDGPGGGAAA", "experiment": "Opioid receptor binding assay, [3H]naltrindole (δ)", "conditions": "Ki [3H]Naltrindole (δ), membranes of CHO cells expressing human δ opioid receptor; 0.2 nM [3H]naltrindole; mean ± S.E."}, "human κ opioid receptor": {"target": "human κ opioid receptor (Homo sapiens, UniProt P41145)", "sequence (P41145 whole entry)": "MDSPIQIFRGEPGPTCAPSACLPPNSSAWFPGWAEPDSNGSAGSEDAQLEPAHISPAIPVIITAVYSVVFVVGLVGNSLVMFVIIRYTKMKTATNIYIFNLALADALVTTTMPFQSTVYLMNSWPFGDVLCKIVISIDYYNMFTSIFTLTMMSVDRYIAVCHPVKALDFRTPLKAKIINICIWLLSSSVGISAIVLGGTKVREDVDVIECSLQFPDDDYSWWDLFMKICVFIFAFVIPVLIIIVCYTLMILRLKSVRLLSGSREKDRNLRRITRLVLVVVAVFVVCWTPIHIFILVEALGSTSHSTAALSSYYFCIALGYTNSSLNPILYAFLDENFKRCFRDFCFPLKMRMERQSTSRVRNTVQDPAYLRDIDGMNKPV", "experiment": "biochemical"}, "human μ opioid receptor": {"target": "human μ opioid receptor (Homo sapiens, UniProt P35372)", "sequence (P35372 whole entry)": "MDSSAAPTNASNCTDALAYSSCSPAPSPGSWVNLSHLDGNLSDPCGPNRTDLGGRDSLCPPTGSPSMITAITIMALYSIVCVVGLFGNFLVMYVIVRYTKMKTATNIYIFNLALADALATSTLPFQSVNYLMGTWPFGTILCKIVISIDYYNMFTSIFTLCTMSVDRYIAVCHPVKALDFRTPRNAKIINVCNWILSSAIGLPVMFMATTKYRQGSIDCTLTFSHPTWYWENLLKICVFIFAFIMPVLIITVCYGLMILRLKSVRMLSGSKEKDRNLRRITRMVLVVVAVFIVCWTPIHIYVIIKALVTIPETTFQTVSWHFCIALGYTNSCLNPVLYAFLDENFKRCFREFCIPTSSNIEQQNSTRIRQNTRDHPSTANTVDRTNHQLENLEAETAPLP", "experiment": "Opioid receptor binding assay, [3H]DAMGO (μ)"}, "[1]": {"conditions": "1 mg/kg ip in mice; cited from earlier work"}},
  "data": [
    {"molecule": "CC1C2Cc3ccc(C(=O)NCCc4ccc(-c5ccc(O)cc5)cc4)cc3C1(C)CCN2CC1CC1", "note": "(racemic) [Compound 1]", "values": [
      {"measurement": "Ki", "setting": "human δ opioid receptor", "result": "0.81 ± 0.12", "unit": "nM"},
      {"measurement": "Ki", "setting": "human κ opioid receptor", "result": "0.49 ± 0.011", "unit": "nM"}
    ]},
    {"molecule": "COc1ccc(-c2ccc(CCNC(=O)c3ccc4c(c3)C3(C)CCN(CC5CC5)C(C4)C3C)cc2)cc1C", "note": "(racemic) [Compound 2]", "values": [
      {"measurement": "Ki", "setting": "human δ opioid receptor", "result": "1.5 ± 0.14", "unit": "nM"}
    ]},
    {"molecule": "COc1ccc(-c2ccc(CCNC(=O)c3ccc4c(c3)C3(C)CCN(CC5CC5)C(C4)C3C)cc2)c(C)c1", "note": "(racemic) [Compound 3]", "values": [
      {"measurement": "Ki", "setting": "human δ opioid receptor", "result": "1.1 ± 0.18", "unit": "nM"},
      {"measurement": "Ki", "setting": "human μ opioid receptor", "result": "0.23 ± 0.0056", "unit": "nM"},
      {"measurement": "Ki", "setting": "human κ opioid receptor", "result": "1.3 ± 0.11", "unit": "nM"}
    ]},
    {"molecule": "CCOc1ccc(-c2ccc(CCNC(=O)c3ccc4c(c3)C3(C)CCN(CC5CC5)C(C4)C3C)cc2)cc1", "note": "(racemic) [Compound 4]", "values": [
      {"measurement": "Ki", "setting": "human δ opioid receptor", "result": "3.4 ± 0.039", "unit": "nM"},
      {"measurement": "Ki", "setting": "human κ opioid receptor", "result": "3.3 ± 0.32", "unit": "nM"}
    ]},
    {"molecule": "CC(C)Oc1ccc(-c2ccc(CCNC(=O)c3ccc4c(c3)C3(C)CCN(CC5CC5)C(C4)C3C)cc2)cc1", "note": "(racemic) [Compound 5]", "values": [
      {"measurement": "Ki", "setting": "human δ opioid receptor", "result": "1.9 ± 0.21", "unit": "nM"},
      {"measurement": "Ki", "setting": "human μ opioid receptor", "result": "0.23 ± 0.041", "unit": "nM"}
    ]},
    {"molecule": "CC(C)Oc1cccc(-c2ccc(CCNC(=O)c3ccc4c(c3)C3(C)CCN(CC5CC5)C(C4)C3C)cc2)c1", "note": "(racemic) [Compound 6]", "values": [
      {"measurement": "Ki", "setting": "human δ opioid receptor", "result": "3.9 ± 1.4", "unit": "nM"},
      {"measurement": "Ki", "setting": "human μ opioid receptor", "result": "0.43 ± 0.041", "unit": "nM"},
      {"measurement": "Ki", "setting": "human κ opioid receptor", "result": "2.4 ± 0.25", "unit": "nM"}
    ]},
    {"molecule": "CC(C)Oc1ccccc1-c1ccc(CCNC(=O)c2ccc3c(c2)C2(C)CCN(CC4CC4)C(C3)C2C)cc1", "note": "(racemic) [Compound 7]", "values": [
      {"measurement": "Ki", "setting": "human δ opioid receptor", "result": "0.55 ± 0.025", "unit": "nM"},
      {"measurement": "Ki", "setting": "human κ opioid receptor", "result": "1.8 ± 0.17", "unit": "nM"}
    ]},
    {"molecule": "CC1C2Cc3ccc(C(=O)NCCc4ccc(-c5ccc6c(c5)OCO6)cc4)cc3C1(C)CCN2CC1CC1", "note": "(racemic) [Compound 8]", "values": [
      {"measurement": "Ki", "setting": "human δ opioid receptor", "result": "1 ± 0.12", "unit": "nM"},
      {"measurement": "Ki", "setting": "human κ opioid receptor", "result": "0.73 ± 0.049", "unit": "nM"}
    ]},
    {"molecule": "CC1C2Cc3ccc(C(=O)NCCc4ccc(-c5ccc(C#N)cc5)cc4)cc3C1(C)CCN2CC1CC1", "note": "(racemic) [Compound 9]", "values": [
      {"measurement": "Ki", "setting": "human δ opioid receptor", "result": "3 ± 0.11", "unit": "nM"},
      {"measurement": "Ki", "setting": "human μ opioid receptor", "result": "0.017 ± 0.00075", "unit": "nM"},
      {"measurement": "Ki", "setting": "human κ opioid receptor", "result": "1 ± 0.095", "unit": "nM"}
    ]},
    {"molecule": "CC1C2Cc3ccc(C(=O)NCCc4ccc(-c5ccc(C=O)cc5)cc4)cc3C1(C)CCN2CC1CC1", "note": "(racemic) [Compound 10]", "values": [
      {"measurement": "Ki", "setting": "human δ opioid receptor", "result": "2.5 ± 0.12", "unit": "nM"},
      {"measurement": "Ki", "setting": "human μ opioid receptor", "result": "0.002 ± 0.00029", "unit": "nM"},
      {"measurement": "Ki", "setting": "human κ opioid receptor", "result": "1.8 ± 0.038", "unit": "nM"}
    ]},
    {"molecule": "C[C@H]1C2Cc3ccc(C(=O)NCCc4ccc(-c5ccc(C(N)=O)cc5)cc4)cc3[C@@]1(C)CCN2CC1CC1", "note": "(racemic) [Compound 34]", "values": [
      {"measurement": "Ki", "setting": "human δ opioid receptor", "result": "1 ± 0.018", "unit": "nM"},
      {"measurement": "Ki", "setting": "human μ opioid receptor", "result": "0.0052 ± 0.00055", "unit": "nM"},
      {"measurement": "Ki", "setting": "human κ opioid receptor", "result": "0.91 ± 0.066", "unit": "nM"}
    ]},
    {"molecule": "C[C@H]1C2Cc3ccc(C(=O)NCCc4ccc(-c5ccc(C(=O)O)cc5)cc4)cc3[C@@]1(C)CCN2CC1CC1", "note": "(racemic) [Compound 35]", "values": [
      {"measurement": "Ki", "setting": "human δ opioid receptor", "result": "68 ± 9", "unit": "nM"},
      {"measurement": "Ki", "setting": "human μ opioid receptor", "result": "2.3 ± 0.16", "unit": "nM"},
      {"measurement": "Ki", "setting": "human κ opioid receptor", "result": "55 ± 4.1", "unit": "nM"}
    ]},
    {"molecule": "COC(=O)c1ccc(-c2ccc(CCNC(=O)c3ccc4c(c3)[C@@]3(C)CCN(CC5CC5)C(C4)[C@@H]3C)cc2)cc1", "note": "(racemic) [Compound 36]", "values": [
      {"measurement": "Ki", "setting": "human δ opioid receptor", "result": "1.5 ± 0.062", "unit": "nM"},
      {"measurement": "Ki", "setting": "human μ opioid receptor", "result": "0.0091 ± 0.00071", "unit": "nM"},
      {"measurement": "Ki", "setting": "human κ opioid receptor", "result": "1.1 ± 0.13", "unit": "nM"}
    ]},
    {"molecule": "CC1C2Cc3ccc(C(=O)NCCc4ccc(-c5ccc(O)cc5)cc4)cc3C1(C)CCN2CC1CC1", "note": "(single isomer, unassigned) [Compound 1A]", "values": [
      {"measurement": "Ki", "setting": "human δ opioid receptor", "result": "0.78 ± 0.05", "unit": "nM"},
      {"measurement": "Ki", "setting": "human κ opioid receptor", "result": "0.36 ± 0.018", "unit": "nM"}
    ]},
    {"molecule": "C[C@H]1C2Cc3ccc(C(N)=O)cc3[C@@]1(C)CCN2CC1CC1", "note": "[Compound 8-CAC, 8-carboxamidocyclazocine]", "values": [
      {"measurement": "duration of action (antinociception)", "setting": "[1]", "result": 15, "unit": "h"}
    ]},
    {"molecule": "C[C@H]1[C@H]2Cc3ccc(O)cc3[C@]1(C)CCN2CC1CC1", "note": "[cyclazocine]", "values": [
      {"measurement": "duration of action (antinociception)", "setting": "[1]", "result": 2, "unit": "h"}
    ]}
  ]
}
